Patent US11441029B1, “Packaging films, and methods of preparation thereof” (King Abdulaziz University, priority 2022, dated 2022)

System: gram-positive and gram-negative bacteria
Assay: Antimicrobial activity of films, bacteria not specified at the place
Format: cell-based
Experimental: Active cultures were prepared by inoculating freshly cultured bacteria or pure colony (24 hours (h)) into lysogeny broth (LB) broth, then incubated in a shaker for 24 h at 30° C. with 200 revolutions per minute (rpm). The optical density (OD) for each culture was set to 0.05, equivalent to 1-2×10^5 colony forming units/millilitre (CFU/mL) by adding LB broth. […] Thereafter, re-suspension was carried out for each sample using 4.6 mL of 0.85 wt. % sodium chloride. Serial dilution was conducted, and 100 microlitre (μL) for each dilution was transferred to LB agar plates. Then, those agar plates were allowed to undergo incubation for 24 h at 30° C. Gentamicin was used as a positive control, and pure PBS film were used as negative control for the microbial culture. […] The whole antimicrobial process was conducted in triplicate to obtain average values. The microbial population was calculated as log CFU per mL sample, and the actual number in each dilution was determined for dishes containing 30-300 colonies using Equation 1 as below: [formula] where C refers to total counts of bacteria in all retained dishes; V refers to volume used for sample dilution; n1 refers to number of retained dishes in first dilution; n2 refers to number of retained dishes in second dilution; D refers to dilution factor of first dilution.

Compound: [O-]n1ccccc1=S.[O-]n1ccccc1=S.[Zn+2] [SAN, zinc, bis[1-(hydroxy-.kappa.O)-2(1H)-pyridinethionato-.kappa.S2]-,(T-4)-]
- antimicrobial activity (general statement): exhibited antimicrobial effects
